Assay results reported in publication PMC7914897, “Cytotoxic Potential of a-Azepano- and 3-Amino-3,4-SeCo-Triterpenoids” (International Journal of Molecular Sciences, 2021).

Experiments:
[1] = tested on: Renal Cancer subpanel; test: NCI-60 screen, subpanel; details: Homo sapiens
[2] = tested on: Breast cancer subpanel; test: NCI-60 screen, subpanel; details: Homo sapiens
[3] = tested on: MDA-MB-31/ATCC (Breast cancer); test: NCI-60 screen (SRB, 48 h); details: Homo sapiens
[4] = tested on: MDA-MB-468 (Breast cancer); test: cells; details: Homo sapiens
[5] = tested on: MOLT-4 (Leukemia); test: NCI-60 screen (SRB, 48 h); details: Homo sapiens
[6] = tested on: SK-OV-3 (Ovarian cancer); test: NCI-60 screen (SRB, 48 h); details: Homo sapiens
[7] = tested on: HOP-62 (NSC lung cancer); test: NCI-60 screen (SRB, 48 h); details: Homo sapiens
[8] = tested on: MCF7 (Breast cancer); test: NCI-60 screen (SRB, 48 h); details: Homo sapiens
[9] = tested on: CCRF-CEM (Leukemia); test: NCI-60 screen (SRB, 48 h); details: Homo sapiens
[10] = tested on: OVCAR-3 (Ovarian cancer); test: cells; details: Homo sapiens
[11] = tested on: SNB-19 (CNS cancer); test: NCI-60 screen (SRB, 48 h); details: Homo sapiens
[12] = tested on: Melanoma subpanel; test: NCI-60 screen, subpanel; details: Homo sapiens
[13] = tested on: HCC-2998 (Colon cancer); test: NCI-60 screen (SRB, 48 h)
[14] = tested on: NCI-H460 (NSC lung cancer); test: NCI-60 screen (SRB, 48 h); details: Homo sapiens
[15] = tested on: 786-0 (Renal cancer); test: NCI-60 screen (SRB, 48 h); details: Homo sapiens
[16] = tested on: COLO 205 (Colon cancer); test: NCI-60 screen (SRB, 48 h); details: Homo sapiens
[17] = tested on: OVCAR-5 (Ovarian cancer); test: NCI-60 screen (SRB, 48 h); details: Homo sapiens
[18] = tested on: EKVX (NSC lung cancer); test: NCI-60 screen (SRB, 48 h); details: Homo sapiens
[19] = tested on: Prostate cancer subpanel; test: NCI-60 screen, subpanel; details: Homo sapiens
[20] = tested on: NCI-H226 (NSC lung cancer); test: NCI-60 screen (SRB, 48 h); details: Homo sapiens
[21] = tested on: SK-MEL-28 (Melanoma); test: NCI-60 screen (SRB, 48 h); details: Homo sapiens
[22] = tested on: MDA-MB-435 (Melanoma); test: NCI-60 screen (SRB, 48 h); type: cell-based; details: Homo sapiens
[23] = tested on: SK-MEL-2 (Melanoma); test: NCI-60 screen (SRB, 48 h); details: Homo sapiens
[24] = tested on: MALME-3M (Melanoma); test: NCI-60 screen (SRB, 48 h); details: Homo sapiens
[25] = tested on: Leukemia subpanel; test: cells; details: Homo sapiens
[26] = tested on: SK-MEL-5 (Melanoma); test: NCI-60 screen (SRB, 48 h); details: Homo sapiens
[27] = tested on: SNB-75 (CNS cancer); test: NCI-60 screen (SRB, 48 h); details: Homo sapiens
[28] = tested on: U251 (CNS cancer); test: NCI-60 screen (SRB, 48 h); details: Homo sapiens

## C=C(C)[C@@H]1CC[C@]2(C)[C@H](CC=C3[C@@H]4[C@@H](C)[C@H](C)CC[C@]4(CO)CC[C@]32C)[C@@]1(C)CCCN [Compound 19]
[1]; 48 h, read-out: TGI MG_MID
  IC (TGI): 4630 nM
[1]; read-out: GI50 MG_MID
  GI50: 1560 nM
[1]; read-out: LC50 MG_MID
  CC50: 13300 nM
[2]; 48 h, read-out: TGI MG_MID
  IC (TGI): 3620 nM
[2]; read-out: GI50 MG_MID
  GI50: 1280 nM
[2]; read-out: LC50 MG_MID
  CC50: 16900 nM
[3]
  GI50: 960 nM
[3]; 48 h, read-out: TGI
  IC (TGI): 1710 nM
[3]; read-out: LC50
  CC50: 3040 nM
[4]; MDA-MB-468
  GI50: 820 nM
[4]; MDA-MB-468, 48 h, read-out: TGI
  IC (TGI): 1660 nM
[4]; MDA-MB-468, read-out: LC50
  CC50: 3360 nM
[5]; MOLT-4
  GI50: 1350 nM
[5]; MOLT-4, 48 h, read-out: TGI
  IC (TGI): 4070 nM
[5]; MOLT-4, read-out: LC50
  CC50: 27900 nM
[6]; SK-OV-3
  GI50: 4420 nM
[6]; SK-OV-3, 48 h, read-out: TGI
  IC (TGI): 12000 nM
[6]; SK-OV-3, read-out: LC50
  CC50: 30500 nM
[7]; HOP-62
  GI50: 1080 nM
[7]; HOP-62, 48 h, read-out: TGI
  IC (TGI): 2360 nM
[7]; HOP-62, read-out: LC50
  CC50: > 50000 nM
[8]; MCF7
  GI50: 830 nM
[8]; MCF7, 48 h, read-out: TGI
  IC (TGI): 1730 nM
[9]
  GI50: 1310 nM
[9]; 48 h, read-out: TGI
  IC (TGI): 5260 nM
[9]; read-out: LC50
  CC50: > 50000 nM
[10]; OVCAR-3
  GI50: 930 nM
[10]; OVCAR-3, 48 h, read-out: TGI
  IC (TGI): 1790 nM
[10]; OVCAR-3, read-out: LC50
  CC50: 3440 nM
[11]; SNB-19
  GI50: 2140 nM
[11]; SNB-19, 48 h, read-out: TGI
  IC (TGI): 8110 nM
[11]; SNB-19, read-out: LC50
  CC50: 25000 nM
[12]; 48 h, read-out: TGI MG_MID
  IC (TGI): 3300 nM
[12]; read-out: GI50 MG_MID
  GI50: 1540 nM
[12]; read-out: LC50 MG_MID
  CC50: 7680 nM
[13]; HCC-2998, 1 dose 10 µM
  Growth % of the Most Sensitive Cell Lines: −93.35%
[13]; Homo sapiens, HCC 2998
  GI50: 870 nM
[13]; Homo sapiens, HCC 2998, 48 h, read-out: TGI
  IC (TGI): 1620 nM
[13]; Homo sapiens, HCC 2998, read-out: LC50
  CC50: 3020 nM
[14]; NCI-H460
  GI50: 910 nM
[14]; NCI-H460, 48 h, read-out: TGI
  IC (TGI): 1710 nM
[14]; NCI-H460, read-out: LC50
  CC50: 3190 nM
[15]; 786-0
  GI50: 840 nM
[15]; 786-0, 48 h, read-out: TGI
  IC (TGI): 1580 nM
[15]; 786-0, read-out: LC50
  CC50: 2970 nM
[16]; COLO 205
  GI50: 900 nM
[16]; COLO 205, 48 h, read-out: TGI
  IC (TGI): 1940 nM
[16]; COLO 205, read-out: LC50
  CC50: 4170 nM
[17]; OVCAR-5
  GI50: 1760 nM
[17]; OVCAR-5, 48 h, read-out: TGI
  IC (TGI): 6150 nM
[17]; OVCAR-5, read-out: LC50
  CC50: 20900 nM
[18]
  GI50: 1080 nM
[18]; 48 h, read-out: TGI
  IC (TGI): 2940 nM
[18]; read-out: LC50
  CC50: 26500 nM
[19]; 48 h, read-out: TGI MG_MID
  IC (TGI): 5250 nM
[19]; read-out: GI50 MG_MID
  GI50: 1430 nM
[19]; read-out: LC50 MG_MID
  CC50: 18600 nM
[20]; NCI-H226
  GI50: 6720 nM
[20]; NCI-H226, 48 h, read-out: TGI
  IC (TGI): 18300 nM
[20]; NCI-H226, read-out: LC50
  CC50: 49900 nM
[21]; SK-MEL-28
  GI50: 950 nM
[21]; SK-MEL-28, 48 h, read-out: TGI
  IC (TGI): 1670 nM
[21]; SK-MEL-28, read-out: LC50
  CC50: 2940 nM
[22]; MDA-MB-435
  GI50: 950 nM
[22]; MDA-MB-435, 48 h, read-out: TGI
  IC (TGI): 1810 nM
[22]; MDA-MB-435, read-out: LC50 (the source's name)
  CC50: 3450 nM
[23]; SK-MEL-2
  GI50: 1730 nM
[23]; SK-MEL-2, 48 h, read-out: TGI
  IC (TGI): 5040 nM
[23]; SK-MEL-2, read-out: LC50
  CC50: 18500 nM
[24]
  GI50: 730 nM
[24]; 48 h, read-out: TGI
  IC (TGI): 1420 nM
[24]; read-out: LC50
  CC50: 2740 nM
[25]; 48 h, read-out: TGI MG_MID
  IC (TGI): 3810 nM
[25]; read-out: GI50 MG_MID
  GI50: 1230 nM
[25]; read-out: LC50 MG_MID
  CC50: 33200 nM
[26]; SK-MEL-5
  GI50: 910 nM
[26]; SK-MEL-5, 48 h, read-out: TGI
  IC (TGI): 1650 nM
[26]; SK-MEL-5, read-out: LC50
  CC50: 3000 nM
[27]; SNB-75
  GI50: 850 nM
[27]; SNB-75, 48 h, read-out: TGI
  IC (TGI): 3620 nM
[27]; SNB-75, read-out: LC50
  CC50: 17100 nM
[28]; U-251
  GI50: 920 nM
[28]; U-251, 48 h, read-out: TGI
  IC (TGI): 1820 nM
